Test results as given in ChEMBL document CHEMBL5357058, “Norterpene Cyclic Peroxides from the Marine Sponge Diacarnus spinipoculum, Inhibitors of Transient Receptor Potential Ankyrin 1” (J Nat Prod, 2024).

Target: Transient receptor potential cation channel subfamily A member 1 (Homo sapiens, UniProt O75762)
Assay: Inhibition of human TRPA1 overexpressed in HEK293 cells assessed as reduction in AITC-induced calcium mobilization preincubated for 5 mins followed by AITC addition by FLIPR assay
Type: cell-based

Chain of Transient receptor potential cation channel subfamily A member 1 (O75762 whole entry): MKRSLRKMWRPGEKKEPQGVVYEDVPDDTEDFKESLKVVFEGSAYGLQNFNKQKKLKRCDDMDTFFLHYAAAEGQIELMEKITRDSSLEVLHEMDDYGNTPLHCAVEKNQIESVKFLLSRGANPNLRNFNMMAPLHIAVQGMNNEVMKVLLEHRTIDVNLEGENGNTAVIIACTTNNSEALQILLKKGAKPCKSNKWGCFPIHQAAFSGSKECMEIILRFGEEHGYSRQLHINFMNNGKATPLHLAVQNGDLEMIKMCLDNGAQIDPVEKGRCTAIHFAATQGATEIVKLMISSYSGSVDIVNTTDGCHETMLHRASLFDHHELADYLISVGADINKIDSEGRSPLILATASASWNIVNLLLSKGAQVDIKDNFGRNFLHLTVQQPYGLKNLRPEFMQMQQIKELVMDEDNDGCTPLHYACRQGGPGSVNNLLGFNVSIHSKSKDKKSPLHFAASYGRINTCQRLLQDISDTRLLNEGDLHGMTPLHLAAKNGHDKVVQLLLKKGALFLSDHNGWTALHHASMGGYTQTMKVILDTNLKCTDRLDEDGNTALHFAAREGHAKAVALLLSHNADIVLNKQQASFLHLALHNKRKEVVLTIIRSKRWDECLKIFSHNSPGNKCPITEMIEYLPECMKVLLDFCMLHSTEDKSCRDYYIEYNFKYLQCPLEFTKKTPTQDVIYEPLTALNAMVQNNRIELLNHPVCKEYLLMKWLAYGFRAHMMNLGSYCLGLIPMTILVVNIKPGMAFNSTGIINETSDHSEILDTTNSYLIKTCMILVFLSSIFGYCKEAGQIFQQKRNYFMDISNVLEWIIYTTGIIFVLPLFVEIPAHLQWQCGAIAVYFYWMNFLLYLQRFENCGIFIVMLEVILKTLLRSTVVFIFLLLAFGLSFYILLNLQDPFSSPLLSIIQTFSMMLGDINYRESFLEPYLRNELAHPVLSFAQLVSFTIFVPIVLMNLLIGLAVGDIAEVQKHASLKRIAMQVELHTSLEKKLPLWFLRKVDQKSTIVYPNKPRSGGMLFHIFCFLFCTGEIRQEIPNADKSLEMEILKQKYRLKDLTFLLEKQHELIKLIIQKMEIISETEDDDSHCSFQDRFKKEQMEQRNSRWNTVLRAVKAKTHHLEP

Structure (SMILES) | IC50 [µM]
CC1=C(CC[C@]2(C)CC[C@H]([C@@H](C)C(=O)O)OO2)C(C)(C)CCC1 | > 30
C=C1CCCC(C)(C)C1CC[C@]1(C)CC[C@@H]([C@@H](C)C(=O)OC)OO1 (some centres not stated) | > 30
COC(=O)[C@H](C)[C@@H]1CC[C@@](C)(CCC2=C(C)CCCC2(C)C)OO1 | 29.3
CC1=C(CC/C(C)=C/CC[C@]2(C)CC[C@@H]([C@H](C)C(=O)O)OO2)C(C)(C)CCC1 | 5.6
CC1=C(CC/C(C)=C/CC[C@@]2(C)CC[C@@H]([C@H](C)C(=O)O)OO2)C(C)(C)CCC1=O | 15.3
C=C1CCC[C@H]2[C@](C)(CC[C@@]3(C)CC[C@H]([C@@H](C)C(=O)O)OO3)[C@@H](C)CC[C@]12C | 2
C=C1CCC[C@H]2[C@](C)(CC[C@@]3(C)CC[C@H]([C@@H](C)C(=O)OC)OO3)[C@@H](C)CC[C@]12C | 13.5
COC(=O)[C@H](C)[C@H]1CC[C@@](C)(CCC2=C(C)C(O)CCC2(C)C)OO1 (mixture of isomers) | > 30
COC(=O)[C@H](C)[C@@H]1CC[C@@](C)(CCC2=C(C)C(O)CCC2(C)C)OO1 (mixture of isomers) | > 30
COC(=O)[C@H](C)[C@@H]1CC[C@@](C)(CCC2=C(C)C(OC)CCC2(C)C)OO1 (mixture of isomers) | > 30
COC(=O)[C@H](C)[C@H]1CC[C@@](C)(CCC2=C(C)C(OC)CCC2(C)C)OO1 (mixture of isomers) | > 30
CC(=O)CCCC(C)(C)C(=O)CC/C(C)=C/CC[C@]1(C)CC[C@H]([C@@H](C)C(=O)O)OO1 [(+)-MUQUBILONE B] | > 30
COC(=O)[C@H](C)[C@H]1CC[C@@](C)(CCC2=C(C)C(=O)CCC2(C)C)OO1 [DIACARPEROXIDE A] | 22.1
CC1=C(CC/C(C)=C/CC[C@@]2(C)CC[C@@H]([C@H](C)C(=O)O)OO2)C(C)(C)CCC1 [EPIMUQUBILIN A] | 4.8
COC(=O)[C@H](C)[C@@H]1CC[C@@](C)(CCC2=C(C)C(=O)CCC2(C)C)OO1 [METHYL DIACARNOATE A] | > 30
COC(=O)[C@H](C)[C@H]1CC[C@@](C)(CCC2=C(C)CCCC2(C)C)OO1 [NUAPAPUIN A METHYL ESTER] | 14.1
C=C1CCCC(C)(C)C1CC[C@]1(C)CC[C@H]([C@@H](C)C(=O)OC)OO1 (some centres not stated) [NUAPAPUIN B] | 18.9
